Data on four compounds can be found in patent US10065990B2, “Cyclic peptide compound, and preparation method, pharmaceutical composition and use thereof” (HANGZHOU GUANYU BIO-MEDICAL CO., LTD, priority 2013, dated 2018).

What is called GI50 is the concentration giving 50% growth inhibition.

One assay deals with T1, HDAC7 (Homo sapiens, UniProt Q8WUI4).
T1 sequence (Q8WUI4 1-952): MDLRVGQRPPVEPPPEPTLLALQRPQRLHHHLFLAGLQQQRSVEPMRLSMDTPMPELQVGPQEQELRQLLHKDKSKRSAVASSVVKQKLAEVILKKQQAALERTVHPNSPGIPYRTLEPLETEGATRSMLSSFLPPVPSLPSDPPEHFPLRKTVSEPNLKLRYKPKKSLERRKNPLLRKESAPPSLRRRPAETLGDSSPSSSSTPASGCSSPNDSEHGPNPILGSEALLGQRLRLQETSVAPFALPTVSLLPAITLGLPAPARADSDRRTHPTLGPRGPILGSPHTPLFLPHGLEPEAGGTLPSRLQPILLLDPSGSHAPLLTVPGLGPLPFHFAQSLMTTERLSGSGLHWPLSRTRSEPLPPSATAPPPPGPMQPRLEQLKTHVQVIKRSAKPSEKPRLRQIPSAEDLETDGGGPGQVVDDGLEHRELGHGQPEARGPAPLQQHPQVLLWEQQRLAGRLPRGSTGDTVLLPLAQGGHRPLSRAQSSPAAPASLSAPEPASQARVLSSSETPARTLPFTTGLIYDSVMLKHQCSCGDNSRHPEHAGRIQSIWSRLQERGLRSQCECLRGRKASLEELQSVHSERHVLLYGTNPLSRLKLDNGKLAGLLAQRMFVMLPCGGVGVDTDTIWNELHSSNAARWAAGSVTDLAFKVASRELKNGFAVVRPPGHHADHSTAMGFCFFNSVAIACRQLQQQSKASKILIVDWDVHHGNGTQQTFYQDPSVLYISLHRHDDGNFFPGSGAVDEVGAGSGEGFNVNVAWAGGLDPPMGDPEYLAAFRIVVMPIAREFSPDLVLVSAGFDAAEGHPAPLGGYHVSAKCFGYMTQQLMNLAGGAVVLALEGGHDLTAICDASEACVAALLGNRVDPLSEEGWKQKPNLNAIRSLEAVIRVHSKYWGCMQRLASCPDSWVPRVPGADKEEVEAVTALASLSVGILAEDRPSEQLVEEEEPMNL
Kind of assay: HDAC biochemical activity measurement (fluorescent substrate deacetylation).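 Also: fluorogenic deacetylation assay using acetyl-lysine substrate at 20 µM, enzyme and compound incubated 30 min at 37 °C, then developer added, fluorescence read at 360/460 nm.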 Conditions: HDAC7; 37° C. 30 minutes.

The subject of assay [1] is PANC-1 (Pac-1, human pancreatic cancer cells). The assay is described as follows: MTT cancer cell growth inhibition. Conditions: Homo sapiens, PANC-1, 72 h, MTT, 72 hours incubation, read-out: GI50 PAN. It is filed as cell-based. A digest of the protocol: (§1)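 Following overnight attachment of 1500 cells per well, each line was exposed to test drug (final 10^−5 to 10^−10 M) for 72 h in a humidified 37° C., 5% CO2 incubator. Four hours with MTT, DMSO dissolution of formazan, and a 570 nm reading yielded viability data used for GI50.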

Assay [2] relates to Huh-7 (human hepatoma cells). The assay is described as follows: MTT cancer cell growth inhibition. It is filed as cell-based. The conditions noted are these: Homo sapiens, Huh-7, 72 h, MTT, 72 hours incubation, Huh-7 cells; read-out: GI50 Huh-7. A digest of the protocol:
as §1

The subject of assay [3] is U937 (human leukemia cells). Kind of assay: MTT cancer cell growth inhibition. It counts as cell-based. The conditions noted are these: Homo sapiens, U-937, 72 h, MTT, 72 hours incubation, read-out: GI50 U93. A digest of the protocol:
as §1

Assay [4] has as its system DU145 (human prostate cancer cells). The assay is described as follows: MTT cancer cell growth inhibition. The conditions noted are these: Homo sapiens, DU-145, 72 h, MTT, 72 hours incubation, read-out: GI50 Du1. It counts as cell-based. A digest of the protocol:
as §1

For assay [5], the system named is MOLT-4 (human acute lymphoblastic leukemia cells). Kind of assay: MTT cancer cell growth inhibition. It is filed as cell-based. The conditions noted are these: Homo sapiens, MOLT-4, 72 h, MTT, 72 hours incubation, read-out: GI50 Mol. A digest of the protocol:
as §1

For assay [6], the system named is Hela (human cervical cancer cells). The assay is described as follows: MTT cancer cell growth inhibition. It is filed as cell-based. The conditions noted are these: MTT, 72 hours incubation, read-out: GI50 Hela. A digest of the protocol: as §1
Assay [7] deals with A549 (human lung cancer cells). Kind of assay: MTT cancer cell growth inhibition. It counts as cell-based. The conditions noted are these: MTT, 72 hours incubation, read-out: GI50 A54. A digest of the protocol:
as §1

Assay [8] relates to HT1080 (human fibrosarcoma cells). The assay is described as follows: MTT cancer cell growth inhibition. It counts as cell-based. Conditions: MTT, 72 hours incubation, read-out: GI50 HT1. A digest of the protocol: as §1
Assay [9] deals with KBM5-T315I (human chronic myelogenous leukemia). Kind of assay: MTT cancer cell growth inhibition. It is filed as cell-based. The conditions noted are these: MTT, 72 hours incubation, KBM5-T315I cells, read-out: GI50 KBM5-T315I. A digest of the protocol: as §1
Assay [10] relates to HCC827 (human non-small cell lung cancer cells). The assay is described as follows: MTT cancer cell growth inhibition. It counts as cell-based. Conditions: MTT, 72 hours incubation, HCC827 cells, read-out: GI50 HCC827. A digest of the protocol: as §1
In assay [11] the test system is MDA-MB-231 (breast cancer cells). Kind of assay: MTT cancer cell growth inhibition. Conditions: Homo sapiens, MDA-MB-231, 72 h, read-out: GI50 MDA-MB-231, MTT, 72 hours incubation, MDA-MB-231 cells. It is filed as cell-based. A digest of the protocol: as §1
The test system of assay [12] is Bel-7402 (human hepatoma cells). Kind of assay: MTT cancer cell growth inhibition. It is filed as cell-based. The conditions noted are these: MTT, 72 hours incubation, Bel-7402 cells, read-out: GI50 Bel-7402. A digest of the protocol: as §1
In assay [13] the test system is SGC-7901 (human gastric cancer cells). Kind of assay: MTT cancer cell growth inhibition. It counts as cell-based. Conditions: Homo sapiens, SGC-7901, 72 h, MTT, 72 hours incubation, SGC-7901 cells; read-out: GI50 SGC-7901. A digest of the protocol: as §1
Assay [14] concerns lncap (prostate cancer cells). The assay is described as follows: MTT cancer cell growth inhibition. The conditions noted are these: Homo sapiens, LNCaP, 72 h, MTT, 72 hours incubation, read-out: GI50 lnca. It is filed as cell-based. A digest of the protocol:
as §1

The subject of assay [15] is H1975 (non-small cell lung adenocarcinoma). The assay is described as follows: MTT cancer cell growth inhibition. Conditions: MTT, 72 hours incubation, H1975 cells, read-out: GI50 H1975. It counts as cell-based. A digest of the protocol:
as §1

The subject of assay [16] is K562 (human leukemia cells). The assay is described as follows: MTT cancer cell growth inhibition. It is filed as cell-based. Conditions: Homo sapiens, K562, 72 h, MTT, 72 hours incubation, K562 cells; read-out: GI50 K562. A digest of the protocol: as §1
In assay [17] the test system is MCF-7 (human breast cancer cells). Kind of assay: MTT cancer cell growth inhibition. It is filed as cell-based. The conditions noted are these: Homo sapiens, MCF7, 72 h, 72 hours incubation, read-out: GI50 MCF. A digest of the protocol:
as §1

Assay [18] deals with N-87 (human gastric cancer cells). Kind of assay: MTT cancer cell growth inhibition. It counts as cell-based. Conditions: Homo sapiens, 72 h, MTT, 72 hours incubation, N-87 cells; read-out: GI50 N-87. A digest of the protocol: as §1
For assay [19], the system named is KBM-5 (human chronic myelogenous leukemia). The assay is described as follows: MTT cancer cell growth inhibition. The conditions noted are these: Homo sapiens, KBM5, 72 h, MTT, 72 hours incubation, KBM-5 cells; read-out: GI50 KBM-5. It counts as cell-based. A digest of the protocol:
as §1

The test system of assay [20] is BGC-823 (human gastric cancer cells). The assay is described as follows: MTT cancer cell growth inhibition. It is filed as cell-based. Conditions: Homo sapiens, BGC-823, 72 h, MTT, 72 hours incubation, read-out: GI50 BG. A digest of the protocol:
as §1

Where two headings read alike, the source gives them in different places.

For the compound `C/C=C1\NC(=O)c2ccc(F)c(n2)CNC(=O)C[C@@H](/C=C/CCSC(C)=O)OC(=O)[C@H](C)NC1=O` [Example 65], at HDAC7, the “IC50 HDAC7” value is listed as “no activity”. Moreover, the GI50 came to 0.06 µM in assay [1]; 0.043 µM in assay [2]; 0.02 µM in assay [3]; 0.02 µM in assay [4]; 0.04 µM in [5]; 0.09 µM in assay [6] (Homo sapiens, HeLa, 72 h). The GI50 in assay [7] (Homo sapiens, A549, 72 h) stood at 0.07 µM; in [8] (Homo sapiens, HT-1080, 72 h) it was 0.06 µM; in [9] (Homo sapiens, 72 h), 0.063 µM; in assay [10] (Homo sapiens, HCC827, 72 h), 0.062 µM; in assay [11], 0.043 µM; in assay [12] (Homo sapiens, Bel-7402, 72 h), 0.062 µM. For the same compound, the GI50 in assay [13] came to 0.077 µM; in assay [14], 0.04 µM; in assay [15] (Homo sapiens, NCI-H1975, 72 h), 0.029 µM; in assay [16] it was 0.029 µM; in assay [17] it was 0.06 µM; in [18], 0.052 µM. Besides, the GI50 in assay [19] was 0.092 µM; in assay [20] it was 0.05 µM.

Regarding `C/C=C1\NC(=O)c2ccc(SC)c(n2)CNC(=O)C[C@@H](/C=C/CCSC(C)=O)OC(=O)[C@H](C)NC1=O` [Compound 185], the “IC50 HDAC7” value against HDAC7 is “no activity”. Moreover, the GI50 was 0.03 µM in [1] (PANC-1 cells); 0.071 µM in assay [2]; 0.05 µM in [3] (U937 cells); 0.03 µM in assay [4] (DU145 cells); 0.05 µM in [5] (MOLT-4 cells); 0.05 µM in [6] (Hela cells). The GI50 is 0.01 µM in assay [7] (A549 cells); 0.05 µM in assay [8] (HT1080 cells); 0.013 µM in assay [9]; 0.082 µM in assay [10]; 0.071 µM in assay [11]; 0.091 µM in assay [12]. The GI50 in [13] was 0.044 µM; in assay [14] (lncap cells), 0.08 µM; in [15], 0.012 µM; in assay [16], 0.036 µM; in assay [17] (MCF-7 cells), 0.06 µM; in assay [18], 0.026 µM. The GI50 was 0.028 µM in assay [19] and 0.03 µM in assay [20] (BGC-823 cells).

On to `C=C1NC(=O)c2cccc(n2)CNC(=O)C[C@@H](/C=C/CCSC(C)=O)OC(=O)[C@H](C)NC1=O` [Example 21], for which, at HDAC7, the “IC50 HDAC7” value is reported as “no activity”. The GI50 in assay [1] was 1.17 µM; in assay [2], 0.084 µM; in assay [3] it was 5.11 µM; in assay [4] it was 0.99 µM; in [5], 1.01 µM; in [6] (Homo sapiens, HeLa, 72 h), 0.4 µM. The GI50 in assay [7] (Homo sapiens, A549, 72 h) was found to be 0.33 µM; in assay [8] (Homo sapiens, HT-1080, 72 h) it was 1.05 µM; in assay [9] (Homo sapiens, 72 h), 0.027 µM; in assay [10] (Homo sapiens, HCC827, 72 h), 0.034 µM; in assay [11], 0.098 µM; in [12] (Homo sapiens, Bel-7402, 72 h), 0.083 µM. Further, the GI50 in assay [13] amounted to 0.024 µM; in assay [14] it was 1.21 µM; in assay [15] (Homo sapiens, NCI-H1975, 72 h) it was 0.037 µM; in assay [16], 0.025 µM; in assay [17] it was 0.1 µM; in assay [18], 0.035 µM. In addition, the GI50 in assay [19] amounted to 0.073 µM; in assay [20] it was 0.87 µM.

In the case of `C/C=C1\NC(=O)c2nc(ccc2SC)CNC(=O)C[C@@H](/C=C/CCSC(C)=O)OC(=O)[C@H](CCCCNC(=O)OCC2c3ccccc3-c3ccccc32)NC1=O` [Compound 195], the “IC50 HDAC7” value at HDAC7 is “no activity”. Besides, the GI50 was 0.03 µM in [1] (PANC-1 cells); 0.045 µM in assay [2]; 0.05 µM in assay [3] (U937 cells); 0.05 µM in assay [4] (DU145 cells); 0.02 µM in assay [5] (MOLT-4 cells); 0.06 µM in [6] (Homo sapiens, HeLa, 72 h, Hela cells). Moreover, the GI50 in assay [7] (Homo sapiens, A549, 72 h, A549 cells) stood at 0.09 µM; in [8] (Homo sapiens, HT-1080, 72 h, HT1080 cells), 0.03 µM; in assay [9] (Homo sapiens, 72 h) it was 0.043 µM; in [10] (Homo sapiens, HCC827, 72 h), 0.079 µM; in assay [11] it was 0.091 µM; in assay [12] (Homo sapiens, Bel-7402, 72 h) it was 0.054 µM. Also, the GI50 in assay [13] worked out at 0.014 µM; in assay [14] (lncap cells), 0.09 µM; in [15] (Homo sapiens, NCI-H1975, 72 h) it was 0.038 µM; in assay [16], 0.081 µM; in assay [17] (MCF-7 cells), 0.03 µM; in assay [18], 0.042 µM. Further, the GI50 in assay [19] was found to be 0.026 µM; in assay [20] (BGC-823 cells), 0.02 µM.
